Source: ChEMBL document CHEMBL1201862, “PubChem BioAssay data set” (2004)
Calls of active or inactive are those of the source.

Key:
Vero [1] = assay: viability of Vero cells under compound – cytotoxicity control for flavivirus capping enzyme inhibitors (AID 588742); type: functional; details: Chlorocebus sabaeus
[2] = biological target: Dual specificity protein kinase CLK1 (Homo sapiens, UniProt P49759); assay: inhibition of human CLK1 activity – biochemical, cherry-picked samples, selectivity assay for Dyrk1A inhibitor project, dose response (AID 588811)
[3] = biological target: Dual specificity tyrosine-phosphorylation-regulated kinase 1A (Rattus norvegicus, UniProt Q63470); type: biochemical, Homo sapiens
[4] = system: Streptococcus sp. 'group A'; assay: Streptococcus pyogenes SK(-)GAS viability under kanamycin – luminescence, BacTiterGlo, confirmation, counter-screen for streptokinase expression inhibitor project, dose response (AID 1900); type: functional, organism-based; details: Streptococcus sp. 'group A'
Streptokinase A = biological target: T1, Streptokinase A (Streptococcus pyogenes serotype M1, UniProt P10520); assay: viability-normalized secreted streptokinase activity reduction – plasminogen activation absorbance, OD405, dose response (AID 1914); type: functional, Streptococcus pyogenes M1 GAS;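 also: secreted streptokinase activity via plasminogen activation per viability signal from cell pellet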
T1 sequence (P10520 whole entry): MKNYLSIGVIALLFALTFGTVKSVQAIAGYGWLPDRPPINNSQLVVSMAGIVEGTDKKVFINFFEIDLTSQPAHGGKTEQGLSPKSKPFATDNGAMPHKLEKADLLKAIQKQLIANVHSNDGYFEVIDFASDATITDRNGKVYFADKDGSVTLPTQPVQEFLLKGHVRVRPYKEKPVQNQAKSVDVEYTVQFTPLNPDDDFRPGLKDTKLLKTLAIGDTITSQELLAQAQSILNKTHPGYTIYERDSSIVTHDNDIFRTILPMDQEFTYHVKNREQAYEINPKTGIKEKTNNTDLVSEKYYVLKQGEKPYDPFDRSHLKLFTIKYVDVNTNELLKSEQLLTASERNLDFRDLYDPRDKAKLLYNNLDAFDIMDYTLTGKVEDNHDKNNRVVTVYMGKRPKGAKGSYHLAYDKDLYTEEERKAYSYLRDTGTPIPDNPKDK

Streptococcus = assay: GAS UMAA2166 growth inhibition – luminescence, BacTiterGlo, counter-screen for streptokinase expression inhibitor project, dose response (AID 1915); type: functional, organism-based; details: Streptococcus;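 also: potency for reduction of bacterial viability or growth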
HeLa = assay: ATP-based viability loss in HeLa cells – cell-based, CellTiter-Glo luminescence, cherry-pick samples, cytotoxicity control for MITF activator project, dose response (AID 540259); type: functional; details: Homo sapiens
HEK293 [5] = assay: inhibition of NOD1-driven NF-kB reporter – cell-based, luminescence, uHTS, primary screen (AID 1578); type: functional; details: Homo sapiens
HEK293 [6] = assay: cells; type: functional, cell-based; details: Homo sapiens
HEK293 [7] = assay: cells; type: functional, cell-based; details: Homo sapiens; remark: listed apart in the source
[8] = biological target: Nucleotide-binding oligomerization domain-containing protein 2 (Homo sapiens, UniProt Q9HC29); assay: inhibition of NOD2-driven NF-kB reporter – cell-based, luminescence, uHTS, HEK293 (AID 1566); type: functional
HEK293 [9] = assay: NOD2 signaling inhibitors in MDP-stimulated cells, cell-based, uHTS, luminescence (AID 2001); type: functional; details: Homo sapiens
HEK293 [10] = assay: cells; type: functional, cell-based; details: Homo sapiens; remark: listed apart in the source
Protein Wnt-3a = Protein Wnt-3a (Mus musculus, UniProt P27467); assay: antagonism of Wnt3a pathway luciferase reporter – Wnt-LIGHT cells, luminescence, selectivity assay for Gli-SUFU antagonist project, dose response (AID 651570); type: functional; details: read-out: IC50_Mean;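 also: Wnt-LIGHT reporter cells stimulated with conditioned medium from Wnt3a-producing cells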
[11] = biological target: Beta-2 adrenergic receptor (Homo sapiens, UniProt P07550); assay: ADRB2 activation measured by internalization – cell-based, FAP fluorogen, flow cytometry, cherry pick 1, dose response (AID 588763); type: functional
[12] = biological target: Eukaryotic translation initiation factor 4H (Homo sapiens, UniProt Q15056); assay: eIF4H binding inhibition – biochemical, uHTS, fluorescence polarization, translation initiation inhibitor project, primary screen (AID 2012)
SUMO-activating enzyme [13] = biological target: T2, SUMO-activating enzyme (Homo sapiens, UniProt Q9UBT2); assay: blockers of UBC9-mediated SUMO conjugation – biochemical, AlphaScreen, SUMOylation inhibitor project, confirmation (AID 2018); type: functional
SUMO-activating enzyme [14] = biological target: T2, SUMO-activating enzyme; assay: blockers of SAE1/SAE2–UBC9 SUMO transfer – biochemical, HTRF, uHTS, primary screen (AID 2006); type: protein-complex assay
[15] = biological target: Polyadenylate-binding protein 1 (Homo sapiens, UniProt P11940); assay: blockers of PABP interaction with poly(A) – biochemical, fluorescence polarization, […] (AID 2014)
H9c2 = assay: cells; type: functional, cell-based; details: Rattus norvegicus, H9c2, Myocardium;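 also: confirmatory concentration-response retest of ultra-high-throughput screening hits for modulation of myocardial damage; cell death induced by hydrogen peroxide oxidative stress; compound pretreatment for 60 min then peroxide exposure for 2 h; potency is for protecting the cells against peroxide damage rather than for killing them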
[16] = biological target: T3, Carboxy-terminal domain RNA polymerase II polypeptide A small phosphatase 1 (Homo sapiens, UniProt Q9GZU7); assay: CTDSP1 inhibitors, concentration-response, biochemical, absorbance readout, ultra-high-throughput screen actives (AID 540297); type: functional
T3 sequence (Q9GZU7 whole entry): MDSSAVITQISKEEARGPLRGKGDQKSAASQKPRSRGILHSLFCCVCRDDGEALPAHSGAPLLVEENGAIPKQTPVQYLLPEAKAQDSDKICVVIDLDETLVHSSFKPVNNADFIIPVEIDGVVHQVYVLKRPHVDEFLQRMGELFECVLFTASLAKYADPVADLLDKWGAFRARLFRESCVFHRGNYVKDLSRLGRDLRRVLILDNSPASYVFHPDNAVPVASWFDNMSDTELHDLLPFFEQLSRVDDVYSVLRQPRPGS

[17] = biological target: Tyrosine-protein phosphatase non-receptor type 11 (Homo sapiens, UniProt Q06124); assay: PTPN11 enzyme inhibitors – biochemical, selectivity assay for STEP inhibitor project, dose response (AID 602367); type: functional; details: read-out: IC50_Mean
[18] = biological target: Tyrosine-protein phosphatase non-receptor type 5 (Homo sapiens, UniProt P54829); assay: PTPN5 enzyme inhibition – biochemical, fluorescence intensity, uHTS hits, confirmation (AID 602372); type: functional; details: read-out: IC50_Mean
[19] = biological target: Dual specificity protein phosphatase 3 (Homo sapiens, UniProt P51452); assay: VHR phosphatase inhibition, dose response, selectivity assay for STEP inhibitor project, biochemical (AID 602374); type: functional; details: read-out: IC50_Mean
BJ [20] = assay: BJ-TERT fibroblast viability loss – cell-based, RAS-independent, luminescence, dose response (AID 1933); type: functional; details: Homo sapiens
BJ [21] = assay: cells; type: functional, cell-based; details: Homo sapiens
BJ [22] = assay: BJ-TERT-LT-ST fibroblast viability loss – cell-based, RAS-independent, luminescence, dose response (AID 1935); type: functional; details: Homo sapiens;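 also: BJ fibroblasts immortalized with TERT plus LT and ST oncogenes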
[23] = DRD fibroblast viability loss – cell-based, non-viral oncogenic, luminescence, dose response (AID 1934); type: functional; details: Homo sapiens
BJ [24] = assay: growth inhibition of engineered Ras-driven BJ cells – cell-based, alamar blue fluorescence, cherrypicked samples, dose response (AID 2631); type: functional; details: Homo sapiens;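 also: confirmatory dose-response assay in RAS-dependent BJ fibroblasts engineered with TERT, LT and ST, with cytotoxicity read by fluorescence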
Vero [25] = assay: cells; type: functional; details: Chlorocebus sabaeus
[26] = biological target: Adenosylmethionine-8-amino-7-oxononanoate aminotransferase (Mycobacterium tuberculosis, UniProt P9WQ81); assay: Mycobacterium tuberculosis BioA enzyme inhibitor Measured in Biochemical System Using Plate Reader - 2163-02_Inhibitor_Dose_CherryPick_Activity.; type: functional, Mycobacterium tuberculosis UT205
Adenosylmethionine-8-amino-7-oxononanoate aminotransferase, sequence (P9WQ81 whole entry): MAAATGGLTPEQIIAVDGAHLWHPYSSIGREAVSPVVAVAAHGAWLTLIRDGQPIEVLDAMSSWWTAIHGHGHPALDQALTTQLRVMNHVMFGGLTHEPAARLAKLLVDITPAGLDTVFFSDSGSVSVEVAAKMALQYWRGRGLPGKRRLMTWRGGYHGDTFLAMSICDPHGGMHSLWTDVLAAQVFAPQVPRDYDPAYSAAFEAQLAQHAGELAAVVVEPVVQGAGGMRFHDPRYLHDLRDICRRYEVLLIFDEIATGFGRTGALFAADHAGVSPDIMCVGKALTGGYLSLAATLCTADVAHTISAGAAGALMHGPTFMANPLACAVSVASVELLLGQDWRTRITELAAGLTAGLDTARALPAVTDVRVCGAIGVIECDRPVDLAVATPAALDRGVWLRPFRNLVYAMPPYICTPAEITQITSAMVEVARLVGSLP

Dual specificity protein kinase CLK1, sequence (P49759 whole entry): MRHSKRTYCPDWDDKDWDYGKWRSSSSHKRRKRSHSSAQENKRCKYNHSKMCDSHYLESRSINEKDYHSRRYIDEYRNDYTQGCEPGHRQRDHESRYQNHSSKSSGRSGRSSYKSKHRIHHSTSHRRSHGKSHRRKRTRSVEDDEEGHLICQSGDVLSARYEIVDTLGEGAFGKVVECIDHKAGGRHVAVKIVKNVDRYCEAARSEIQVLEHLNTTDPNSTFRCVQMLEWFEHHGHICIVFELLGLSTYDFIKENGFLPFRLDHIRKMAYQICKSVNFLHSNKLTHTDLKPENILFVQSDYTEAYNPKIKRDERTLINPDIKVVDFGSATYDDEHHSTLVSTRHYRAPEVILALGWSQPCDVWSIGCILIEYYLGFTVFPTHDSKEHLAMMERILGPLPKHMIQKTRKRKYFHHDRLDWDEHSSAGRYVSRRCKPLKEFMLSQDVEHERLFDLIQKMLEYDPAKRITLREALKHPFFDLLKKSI
T2 sequence (Q9UBE0 whole entry): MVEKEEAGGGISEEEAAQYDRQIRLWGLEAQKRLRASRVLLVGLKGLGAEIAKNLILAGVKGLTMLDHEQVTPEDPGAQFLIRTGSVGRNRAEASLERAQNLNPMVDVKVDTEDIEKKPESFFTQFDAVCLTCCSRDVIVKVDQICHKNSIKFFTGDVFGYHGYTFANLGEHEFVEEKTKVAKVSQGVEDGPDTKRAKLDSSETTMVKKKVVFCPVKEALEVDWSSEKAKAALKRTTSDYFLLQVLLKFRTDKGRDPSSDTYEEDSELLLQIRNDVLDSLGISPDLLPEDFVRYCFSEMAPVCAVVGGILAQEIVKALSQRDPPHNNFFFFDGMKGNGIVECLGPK
T2 sequence (Q9UBT2 whole entry): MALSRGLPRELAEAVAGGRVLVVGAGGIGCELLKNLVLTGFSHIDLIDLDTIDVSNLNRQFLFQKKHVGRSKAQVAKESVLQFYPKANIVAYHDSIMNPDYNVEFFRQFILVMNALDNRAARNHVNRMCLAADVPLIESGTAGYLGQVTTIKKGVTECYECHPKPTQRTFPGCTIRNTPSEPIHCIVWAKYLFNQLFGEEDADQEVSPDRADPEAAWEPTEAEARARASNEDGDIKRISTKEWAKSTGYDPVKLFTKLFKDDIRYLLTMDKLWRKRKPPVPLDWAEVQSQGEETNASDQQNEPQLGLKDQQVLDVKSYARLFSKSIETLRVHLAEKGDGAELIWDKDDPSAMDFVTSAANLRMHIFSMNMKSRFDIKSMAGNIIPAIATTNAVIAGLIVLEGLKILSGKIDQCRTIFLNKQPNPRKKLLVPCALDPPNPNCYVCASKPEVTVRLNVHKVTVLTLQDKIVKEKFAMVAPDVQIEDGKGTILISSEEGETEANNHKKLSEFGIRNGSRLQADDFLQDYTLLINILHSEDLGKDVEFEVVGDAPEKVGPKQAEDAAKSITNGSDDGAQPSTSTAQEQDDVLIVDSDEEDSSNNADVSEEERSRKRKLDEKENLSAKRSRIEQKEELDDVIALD
Polyadenylate-binding protein 1, sequence (P11940 whole entry): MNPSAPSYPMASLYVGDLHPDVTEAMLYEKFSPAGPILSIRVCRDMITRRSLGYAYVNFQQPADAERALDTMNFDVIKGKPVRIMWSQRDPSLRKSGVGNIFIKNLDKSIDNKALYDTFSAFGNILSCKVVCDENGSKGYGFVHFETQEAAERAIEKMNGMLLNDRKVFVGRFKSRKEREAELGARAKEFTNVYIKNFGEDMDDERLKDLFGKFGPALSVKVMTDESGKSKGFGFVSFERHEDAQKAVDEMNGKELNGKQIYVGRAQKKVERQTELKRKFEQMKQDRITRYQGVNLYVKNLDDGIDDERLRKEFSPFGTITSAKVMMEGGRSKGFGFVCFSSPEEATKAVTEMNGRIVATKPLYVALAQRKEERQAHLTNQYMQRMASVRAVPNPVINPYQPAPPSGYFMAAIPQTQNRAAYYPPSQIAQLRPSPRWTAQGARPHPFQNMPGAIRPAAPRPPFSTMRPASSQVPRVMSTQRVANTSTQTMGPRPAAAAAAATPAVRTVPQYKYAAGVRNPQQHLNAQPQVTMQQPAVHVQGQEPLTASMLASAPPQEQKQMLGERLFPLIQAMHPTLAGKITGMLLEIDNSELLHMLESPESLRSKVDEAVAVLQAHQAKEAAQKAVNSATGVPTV
Dual specificity protein phosphatase 3, sequence (P51452 whole entry): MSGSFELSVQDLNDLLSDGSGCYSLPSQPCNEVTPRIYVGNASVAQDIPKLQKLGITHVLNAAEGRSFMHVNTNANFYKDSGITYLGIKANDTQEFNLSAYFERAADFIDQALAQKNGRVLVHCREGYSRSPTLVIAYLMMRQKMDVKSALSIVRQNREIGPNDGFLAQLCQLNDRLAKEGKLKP
Nucleotide-binding oligomerization domain-containing protein 2, sequence (Q9HC29 whole entry, the tested form may be a part): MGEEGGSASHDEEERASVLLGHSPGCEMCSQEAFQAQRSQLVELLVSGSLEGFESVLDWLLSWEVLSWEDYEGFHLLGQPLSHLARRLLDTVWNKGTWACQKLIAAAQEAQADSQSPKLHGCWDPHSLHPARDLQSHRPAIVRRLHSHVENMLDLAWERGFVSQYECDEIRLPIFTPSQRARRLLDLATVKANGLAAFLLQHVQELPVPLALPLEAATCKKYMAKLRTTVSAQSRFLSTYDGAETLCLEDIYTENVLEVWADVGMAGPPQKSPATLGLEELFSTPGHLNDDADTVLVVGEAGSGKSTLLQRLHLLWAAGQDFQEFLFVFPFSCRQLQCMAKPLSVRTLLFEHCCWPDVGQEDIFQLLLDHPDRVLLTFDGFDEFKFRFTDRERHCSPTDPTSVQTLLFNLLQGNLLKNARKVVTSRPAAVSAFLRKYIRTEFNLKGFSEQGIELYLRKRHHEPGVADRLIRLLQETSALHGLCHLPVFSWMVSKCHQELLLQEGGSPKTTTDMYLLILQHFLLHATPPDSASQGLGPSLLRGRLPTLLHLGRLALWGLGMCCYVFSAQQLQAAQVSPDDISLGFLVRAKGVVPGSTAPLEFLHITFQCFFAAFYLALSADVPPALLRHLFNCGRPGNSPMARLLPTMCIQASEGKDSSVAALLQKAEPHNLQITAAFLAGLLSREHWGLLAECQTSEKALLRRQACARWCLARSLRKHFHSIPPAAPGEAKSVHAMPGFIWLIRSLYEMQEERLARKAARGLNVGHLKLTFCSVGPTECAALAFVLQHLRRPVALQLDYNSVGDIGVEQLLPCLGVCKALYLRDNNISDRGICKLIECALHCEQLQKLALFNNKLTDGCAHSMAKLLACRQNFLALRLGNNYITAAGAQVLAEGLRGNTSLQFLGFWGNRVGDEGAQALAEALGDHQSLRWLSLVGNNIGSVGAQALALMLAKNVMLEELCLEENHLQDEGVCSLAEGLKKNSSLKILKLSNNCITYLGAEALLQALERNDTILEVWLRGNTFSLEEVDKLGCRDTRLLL
Tyrosine-protein phosphatase non-receptor type 5, sequence (P54829 whole entry): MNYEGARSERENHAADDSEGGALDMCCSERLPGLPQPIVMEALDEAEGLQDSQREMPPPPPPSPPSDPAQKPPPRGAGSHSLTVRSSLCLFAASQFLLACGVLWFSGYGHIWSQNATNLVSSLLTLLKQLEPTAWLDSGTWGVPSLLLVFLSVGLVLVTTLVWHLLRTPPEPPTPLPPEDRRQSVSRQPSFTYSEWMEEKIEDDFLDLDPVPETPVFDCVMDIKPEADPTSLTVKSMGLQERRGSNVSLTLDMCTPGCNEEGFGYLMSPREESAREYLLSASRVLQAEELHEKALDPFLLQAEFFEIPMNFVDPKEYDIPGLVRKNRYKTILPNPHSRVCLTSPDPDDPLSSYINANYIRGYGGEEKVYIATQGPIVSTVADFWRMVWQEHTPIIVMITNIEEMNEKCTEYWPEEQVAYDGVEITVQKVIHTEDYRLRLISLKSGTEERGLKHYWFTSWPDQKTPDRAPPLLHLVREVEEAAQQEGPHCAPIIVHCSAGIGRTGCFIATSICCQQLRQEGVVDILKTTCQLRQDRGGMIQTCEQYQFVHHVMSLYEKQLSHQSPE
Protein Wnt-3a, sequence (P27467 whole entry): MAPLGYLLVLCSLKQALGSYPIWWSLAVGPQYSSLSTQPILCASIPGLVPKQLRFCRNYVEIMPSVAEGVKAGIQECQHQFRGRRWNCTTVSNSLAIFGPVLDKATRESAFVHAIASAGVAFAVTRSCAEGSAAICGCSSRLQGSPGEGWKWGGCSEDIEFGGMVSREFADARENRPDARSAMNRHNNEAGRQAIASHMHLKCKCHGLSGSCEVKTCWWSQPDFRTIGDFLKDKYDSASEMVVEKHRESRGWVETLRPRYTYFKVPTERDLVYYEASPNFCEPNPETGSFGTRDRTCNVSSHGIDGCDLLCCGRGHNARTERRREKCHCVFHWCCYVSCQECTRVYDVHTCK

With `COc1cc(CNc2ccc(O)cc2)cc(Br)c1OCc1ccccc1F` the CC50 (Vero [1]) was > 40 µM (active).

For `CCN1CCN(Cc2ccc(NC(=O)c3ccc(C)c(NC(=O)N4CCNC4=O)c3)cc2C(F)(F)F)CC1`, the AC50 [2] was 2.29 µM (active) and the AC50 [3] was 8.71 µM (active).

With `O=C(Nc1nc(-c2ccc3c(c2)OCCO3)cs1)c1ccco1` the EC50 [4] was 20.1 µM (active), the EC50 (Streptokinase A) was > 150 µM (not active) and the EC50 (Streptococcus) was > 150 µM (not active). The AC50 [2] was 3.98 µM (active) and the AC50 [3] was 6.45 µM (active).

In the case of `c1ccc2oc(-c3ccc4[nH]cnc4c3)nc2c1`, the AC50 (HeLa) is reported as 69.6 µM (active).

In the case of `Cc1nc2cc(N3CCN(C)CC3)c(NC(=O)Cc3ccccc3)cc2c(=O)n1Cc1ccccc1`, the EC50 (HEK293 [5]) is reported as > 20 µM (inactive), the IC50 (HEK293 [6]) is reported as 8.5 µM (active) and the IC50 (HEK293 [7]) is reported as > 20 µM (inactive). The EC50 [8] was 9.39 µM (active), the IC50 (HEK293 [9]) was > 20 µM (inactive) and the IC50 (HEK293 [10]) was > 20 µM (inactive). The IC50 (Protein Wnt-3a) was 37.5 µM (inactive).

With `O=C(c1cccc(Cl)c1)N1CCC(C(=O)N2CCN(Cc3ccccc3)CC2)CC1` the EC50 [11] was 5.89 µM (active).

In the case of `COc1cc(/C=N/NC(=O)c2ccccc2O)ccc1OCC(=O)Nc1ccccc1`, the IC50 [12] is reported as 15.4 µM (active), the IC50 (SUMO-activating enzyme [13]) is reported as 16.4 µM (active) and the IC50 (SUMO-activating enzyme [14]) is reported as 8.71 µM (active). The IC50 [15] was > 100 µM (inactive), the IC50 (H9c2) was > 79 µM (inactive) and the IC50 [16] was 5.46 µM (active). For the same molecule, the IC50 [17] was 1.25 µM (active), the IC50 [18] was 26.2 µM (inactive) and the IC50 [19] was 4.1 µM (active).

In the case of `COc1ccc(/C=N\NC(=O)c2cccc(F)c2)cc1COc1ccccc1`, the EC50 (BJ [20]) is reported as 0.575 µM (inconclusive), the EC50 (BJ [21]) is reported as 31.5 µM (active) and the EC50 (BJ [22]) is reported as 5.12 µM (inconclusive). The EC50 [23] was 1.15 µM (active), the EC50 (BJ [24]) was 0.286 µM (active) and the CC50 (Vero [25]) was 0.35 µM (active).

With `CCNC(=O)[C@@H]1[C@@H](CO)[C@@H]2Cn3c(ccc(-c4cccnc4)c3=O)[C@@H]2N1Cc1ccc2c(c1)OCO2` the AC50 [26] was 9.24 µM (active).
